The values that follow come from publication PMC9101642 (Molecules, 2022).

In one data set the test system is MCF-7 cell lines. The data set is described as follows: MTT antiproliferative assay. Type of data set: cell-based, human. Conditions: for IC50: Homo sapiens, read-out: MCF-7 (IC50 nM); for MCF-7 antiproliferative potency, fold higher than Ral / MCF-7 antiproliferative potency, fold lower than 3DPQ-12: ratio of IC50 values; for SI: selectivity index [IC50(MDA-MB-231)]/[IC50(MCF-7)]. For orientation: Tetrazolium dyes change colour on reduction, which living cells bring about.

Data set [1] has as its system Ishikawa endometrial adenocarcinoma cells. The data set is described as follows: Antiproliferative assay. To be noted: Homo sapiens, growth inhibition. Type of data set: cell-based.
Data set [2] relates to MNU-induced breast cancer. The data set is described as follows: In vivo anticancer screening, MNU-induced mammary tumorigenesis. Also noted: species or system female Wistar rats.
Data set [3] can be described thus: Plasma protein binding determination. Type of data set: in vitro ADME, rat. To be noted: rat plasma, 37 °C, read-out: Rat PPB (%free). In a few lines:
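Mammary tumours induced in rats by MNU 50 mg/kg i.p. at day 50; after two weeks, compounds given orally at 5 or 50 mg/kg once daily for six weeks. Serum AST, ALT (340 nm), ALP (405 nm) and bilirubin measured; liver homogenate GSH, CAT, MDA by colorimetry; plasma binding by ultrafiltration at 37°C with BCA protein read-out.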

A short description of data set [4]: Lipophilicity by shake-flask method. To be noted: pH 7.4.
A short description of data set [5]: Pharmacokinetics study, oral bioavailability. To be noted: rat.
[6] abbreviates: dose 50 mg/kg (compounds per os after MNU; MNU alone i.p.).

Like-named read-outs stand apart in the source and are kept apart here. Marks after values point to notes of the source that are not given here.

In general, IC50 refers to the point on the concentration scale where inhibition reaches its midpoint. A word on the logD: it is the decadic logarithm of the distribution of all forms, ionised or not, between an organic phase and buffer at a given pH. A higher logD goes with higher lipophilicity. On to `CNCCOc1ccc(C(=O)O[C@@H]2/C=C/C(=O)O[C@@H](O)CCC/C=C/[C@@H]3C[C@H](O)C[C@H]32)cc1C(C)=O` [Compound 3DPQ-1, (1R,2E,6R,10E,11aS,13S,14aR)-6,13-dihydroxy-4-oxo-4,6,7,8,9,11a,12,13,14,14a-decahydro-1H-cyclopenta[f][1]oxacyclotridecin-1-yl 3-acetyl-4-(2-(methylamino)ethoxy)benzoate], for which the IC50 in the data set on MCF-7 cell lines (MCF7, growth inhibition, 48 h) amounted to 0.76 ± 0.24 nM. Also, in the data set on MCF-7 cell lines, the “MCF-7 antiproliferative potency, fold higher than Ral” value was 1.17 fold and the SI is 95.31 ^‡,§. Moreover, in data set [1], the IC50 is 0.94 ± 0.36 nM. For the same molecule, in data set [2] (dose 5 mg/kg per os after MNU), the “Tumor Burden (week)” value is reported as 3.38 ± 0.31 ^i,*^,†,‖ week, the “Tumor Latency (week)” value was 9 * week and the “Tumor Volume (mm^3)” value was 1.09 ± 0.23 *^,†,‡,‖ mm^3. For the same molecule, in data set [2] (setting [6]), the “Tumor Burden (week)” value is reported as 2.04 ± 0.35 *^,†,§,┴ week, the “Tumor Latency (week)” value is 12 *^,† week and the “Tumor Volume (mm^3)” value is on record as 0.68 ± 0.35 *^,†,§,┴ mm^3. Moreover, in data set [3], the fraction unbound at 5 mg/kg bwt was determined as 0.0133 and the fraction unbound at 50 mg/kg bwt stood at 0.0122. The logD at 30 min in data set [4] is 1.94. The molecule also showed a BIO in data set [5] (oral 5 mg/kg) of 91. In data set [5] (oral 50 mg/kg), this molecule came in with a BIO of 94.

With `CC(=O)c1cc(C(=O)O[C@@H]2/C=C/C(=O)O[C@@H](O)CCC/C=C/[C@@H]3C[C@H](O)C[C@H]32)ccc1OCCN(C)C` [Compound 3DPQ-2, (1R,2E,6R,10E,11aS,13S,14aR)-6,13-dihydroxy-4-oxo-4,6,7,8,9,11a,12,13,14,14a-decahydro-1H-cyclopenta[f][1]oxacyclotridecin-1-yl 3-acetyl-4-(2-(dimethylamino)ethoxy)benzoate], the IC50 with MCF-7 cell lines (MCF7, growth inhibition, 48 h) was determined as 0.73 ± 0.42 nM. Moreover, in the data set with MCF-7 cell lines, the “MCF-7 antiproliferative potency, fold higher than Ral” value is listed as 1.21 fold and the SI is recorded as 99.20 ^‡,§. For the same molecule, the IC50 in data set [1] worked out at 0.99 ± 0.35 nM. Moreover, in data set [2] (dose 5 mg/kg per os after MNU), the “Tumor Burden (week)” value is on record as 3.34 ± 0.57 *^,†,‖ week, the “Tumor Latency (week)” value is 9 * week and the “Tumor Volume (mm^3)” value is 0.96 ± 0.41 *^,†,‡,‖ mm^3. Further, in data set [2] (setting [6]), the “Tumor Burden (week)” value is 1.98 ± 0.45 *^,†,§,┴ week, the “Tumor Latency (week)” value is on record as 12 *^,† week and the “Tumor Volume (mm^3)” value is 0.69 ± 0.23 *^,†,§,┴ mm^3. Also, in data set [3], the fraction unbound at 5 mg/kg bwt was determined as 0.0115 and the fraction unbound at 50 mg/kg bwt was 0.0124. In addition, in data set [4], the logD at 30 min stood at 1.99. The BIO in data set [5] (oral 5 mg/kg) came out at 92. In data set [5] (oral 50 mg/kg), this molecule yielded a BIO of 94.

As for `CC(=O)c1cc(C(=O)OC2/C=C/C(=O)O[C@@H](O)CCC/C=C/[C@@H]3C[C@H](O)C[C@@H]23)ccc1OCCN1CCC=C(C(=O)O)C1` (stereo partly drawn) [Compound 3DPQ-3, 1-(2-(2-acetyl-4-((((2E,6R,10E,11aS,13S,14aR)-6,13-dihydroxy-4-oxo-4,6,7,8,9,11a,12,13,14,14a-decahydro-1H-cyclopenta[f][1]oxacyclotridecin-1-yl)oxy)carbonyl)phenoxy)ethyl)-1,2,5,6-tetrahydropyridine-3-carboxylic acid], in the data set on MCF-7 cell lines (MCF7, 48 h), the IC50 stood at 0.61 ± 0.56 nM. Further, in the data set with MCF-7 cell lines, the “MCF-7 antiproliferative potency, fold higher than Ral” value amounted to 1.43 fold and the “MCF-7 antiproliferative potency, fold lower than 3DPQ-12” value was found to be 1.11 fold. In data set [1], this molecule showed an IC50 of 0.84 ± 0.74 nM. Moreover, in data set [2] (dose 5 mg/kg per os after MNU), the “Tumor Burden (week)” value is reported as 2.18 ± 0.69 *^,†,‡,‖ week, the “Tumor Latency (week)” value was 12 *^,†,‡ week and the “Tumor Volume (mm^3)” value is reported as 0.78 ± 0.43 *^,†,‡,‖ mm^3. Also, in data set [2] (setting [6]), the “Tumor Burden (week)” value is given as 1.16 ± 0.64 *^,†,§,┴ week, the “Tumor Latency (week)” value is reported as 15 *^,†,§ week and the “Tumor Volume (mm^3)” value is reported as 0.66 ± 0.21 *^,†,§,┴ mm^3. Moreover, in data set [3], the fraction unbound at 5 mg/kg bwt was 0.0134 and the fraction unbound at 50 mg/kg bwt worked out at 0.0147. The logD at 30 min in data set [4] turned out to be 2.07. The molecule also registered a BIO in data set [5] (oral 5 mg/kg) of 90. The same molecule showed a BIO in data set [5] (oral 50 mg/kg) of 93.

As for `CC(=O)c1cc(C(=O)O[C@@H]2/C=C/C(=O)O[C@@H](O)CCC/C=C/[C@@H]3C[C@H](O)C[C@H]32)ccc1OCCN1CC(C(=O)O)=CCC1=O` [Compound 3DPQ-9, 1-(2-(2-acetyl-4-((((1R,2E,6R,10E,11aS,13S,14aR)-6,13-dihydroxy-4-oxo-4,6,7,8,9,11a,12,13,14,14a-decahydro-1H-cyclopenta[f][1]oxacyclotridecin-1-yl)oxy)carbonyl)phenoxy)ethyl)-6-oxo-1,2,5,6-tetrahydropyridine-3-carboxylic acid], the IC50 with MCF-7 cell lines (MCF7, growth inhibition, 48 h) was found to be 0.62 ± 0.15 nM. In the data set on MCF-7 cell lines, the “MCF-7 antiproliferative potency, fold higher than Ral” value worked out at 1.46 fold and the “MCF-7 antiproliferative potency, fold lower than 3DPQ-12” value was determined as 1.09 fold. The same molecule returned an IC50 in data set [1] of 0.89 ± 0.24 nM. Moreover, in data set [2] (dose 5 mg/kg per os after MNU), the “Tumor Burden (week)” value is listed as 2.28 ± 0.47 *^,†,‡,‖ week, the “Tumor Latency (week)” value is 12 *^,†,‡ week and the “Tumor Volume (mm^3)” value is recorded as 0.77 ± 0.32 *^,†,‡,‖ mm^3. Also, in data set [2] (setting [6]), the “Tumor Burden (week)” value is 1.14 ± 0.65 *^,†,§,┴ week, the “Tumor Latency (week)” value is listed as 15 *^,†,§ week and the “Tumor Volume (mm^3)” value is 0.40 ± 0.43 *^,†,§,┴ mm^3. For the same molecule, in data set [3], the fraction unbound at 5 mg/kg bwt turned out to be 0.0128 and the fraction unbound at 50 mg/kg bwt was 0.0131. Further, in data set [4] (n-octanol/phosphate buffer), the logD at 30 min came to 2.02. The BIO in data set [5] (oral 5 mg/kg) is 94 ^‡. In data set [5] (oral 50 mg/kg), this molecule registered a BIO of 97.

In the case of `CC(=O)c1cc(C(=O)O[C@@H]2/C=C/C(=O)O[C@@H](O)CCC/C=C/[C@@H]3C[C@H](O)C[C@H]32)ccc1OCCN1CCCC(O)C1=O` (stereo partly drawn) [Compound 3DPQ-12, (1R,2E,6R,10E,11aS,13S,14aR)-6,13-dihydroxy-4-oxo-4,6,7,8,9,11a,12,13,14,14a-decahydro-1H-cyclopenta[f][1]oxacyclotridecin-1-yl 3-acetyl-4-(2-(3-hydroxy-2-oxopiperidin-1-yl)ethoxy)benzoate], in the data set with MCF-7 cell lines (MCF7, growth inhibition, 48 h), the IC50 worked out at 0.56 ± 0.11 nM. This molecule yielded an IC50 in data set [1] of 0.77 ± 0.43 nM. Also, in data set [2] (dose 5 mg/kg per os after MNU), the “Tumor Burden (week)” value is 2.24 ± 0.54 *^,†,‡,‖ week, the “Tumor Latency (week)” value was 12 *^,†,‡ week and the “Tumor Volume (mm^3)” value is 0.67 ± 0.22 *^,†,‡,‖ mm^3. For the same molecule, in data set [2] (setting [6]), the “Tumor Burden (week)” value is 0.94 ± 0.35 *^,†,§,┴ week, the “Tumor Latency (week)” value is recorded as 15 *^,†,§ week and the “Tumor Volume (mm^3)” value was 0.34 ± 0.11 *^,†,§,┴ mm^3. For the same molecule, in data set [3], the fraction unbound at 5 mg/kg bwt turned out to be 0.0124 and the fraction unbound at 50 mg/kg bwt was 0.0131. This molecule also yielded a log distribution coefficient (logD) at 30 min in data set [4] of 2.06. Besides, in data set [5] (oral 5 mg/kg), the BIO is listed as 93 ^‡. In data set [5] (oral 50 mg/kg), this molecule registered a BIO of 96.
